# Laboratory results published in US20240041042A1, “1-(PYRIDYL)-5-AZINYLPYRAZOLE DERIVATIVES, AND THEIR USE FOR CONTROL OF UNDESIRED PLANT GROWTH” (Bayer Aktiengesellschaft, priority 2020, published 2024).
# Where two headings read alike, the source gives them in different places.
# Legend:
# Type in all cases: in vivo
# [1] = tested on: Alopecurus myosuroides (ALOMY); experiment: Pre-emergence herbicidal action against ALOMY; settings: scored visually after about 3 weeks, 100% = plants have died
# Summary of the method: (§1)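 Application rates ran to 320 g/ha or lower, with several dosages tested on the same weeds. The compound, as wettable powder or emulsion concentrate, is sprayed pre-emergence onto soil over sown seeds; greenhouse growth follows, and effect is rated visually after roughly 3 weeks.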
# [2] = tested on: Amaranthus retroflexus (AMARE); experiment: Pre-emergence herbicidal action against AMARE; settings: visual scoring after about 3 weeks vs untreated controls
# Summary of the method: as §1
# [3] = tested on: Avena fatua (AVEFA); experiment: Pre-emergence herbicidal action against AVEFA; settings: 320 g/ha, visual scoring after about 3 weeks vs untreated controls
# Summary of the method: as §1
# [4] = tested on: Digitaria sanguinalis (DIGSA); experiment: Pre-emergence herbicidal action against DIGSA
# Summary of the method: as §1
# [5] = tested on: Echinochloa crus-galli (ECHCG); experiment: Pre-emergence herbicidal action against ECHCG; settings: dosage 320 g/ha
# Summary of the method: as §1
# [6] = tested on: Lolium rigidum (LOLRI); experiment: Pre-emergence herbicidal action against LOLRI; settings: dosage 320 g/ha
# Summary of the method: as §1
# [7] = tested on: Matricaria inodora (MATIN); experiment: Pre-emergence herbicidal action against MATIN; settings: dosage 320 g/ha
# Summary of the method: as §1
# [8] = tested on: Pharbitis purpurea (PHBPU); experiment: Pre-emergence herbicidal action against PHBPU
# Summary of the method: as §1
# [9] = tested on: Polygonum convolvulus (POLCO); experiment: Pre-emergence herbicidal action against POLCO; settings: dosage 320 g/ha
# Summary of the method: as §1
# [10] = tested on: Setaria viridis (SETVI); experiment: Pre-emergence herbicidal action against SETVI
# Summary of the method: as §1
# [11] = tested on: Verconica persica (VERPE); experiment: Pre-emergence herbicidal action against VERPE; settings: dosage 320 g/ha
# Summary of the method: as §1
# [12] = tested on: Viola tricolor (VIOTR); experiment: Pre-emergence herbicidal action against VIOTR; settings: 320 g/ha, Viola tricolor
# Summary of the method: as §1
# [13] = tested on: Oryza sativa (ORYSA); settings: pre-emergence, crop plant compatibility, in comparison to untreated controls
# Summary of the method: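 Crop injury rated visually in percent against untreated plants roughly 3 weeks after treatment (0% no effect, 100% plants dead). Compounds, as WP or EC with 0.5% additive in 600 l/ha water, were applied to the covering soil right after sowing; greenhouse growth. Suffixes a, b, c denote different dosages.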
# [14] = tested on: Abutilon theophrasti (ABUTH); experiment: Post-emergence herbicidal action against ABUTH; settings: visual rating about 3 weeks after treatment vs untreated controls (100% = plants have died, 0% = like control plants)
# Summary of the method: (§2)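 Values are percent visual activity (0% like control, 100% plants dead) after about 3 weeks in the greenhouse. Treatment: post-emergence spray at one-leaf stage, 600 l/ha spray volume, 0.5% additive, doses 320 g/ha or lower.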
# [15] = tested on: Alopecurus myosuroides (ALOMY); experiment: Post-emergence herbicidal action against ALOMY; settings: visual rating about 3 weeks after treatment vs untreated controls (100% = plants have died, 0% = like control plants)
# Summary of the method: as §2
# [16] = tested on: Avena fatua (AVEFA); experiment: Post-emergence herbicidal action against AVEFA; settings: 320 g/ha, visual rating about 3 weeks after treatment
# Summary of the method: as §2
# [17] = tested on: Digitaria sanguinalis (DIGSA); experiment: Post-emergence herbicidal action against DIGSA; settings: visual rating about 3 weeks after treatment
# Summary of the method: as §2
# [18] = tested on: Echinochloa crus-galli (ECHCG); experiment: Post-emergence herbicidal action against ECHCG
# Summary of the method: as §2
# [19] = tested on: Lolium rigidum (LOLRI); experiment: Post-emergence herbicidal action against LOLRI; settings: dosage 320 g/ha
# Summary of the method: as §2
# [20] = tested on: Pharbitis purpurea (PHBPU); experiment: Post-emergence herbicidal action against PHBPU
# Summary of the method: as §2
# [21] = tested on: Setaria viridis (SETVI); experiment: Post-emergence herbicidal action against SETVI
# Summary of the method: as §2
# [22] = tested on: Verconica persica (VERPE); experiment: Post-emergence herbicidal action against VERPE
# Summary of the method: as §2
# [23] = tested on: Oryza sativa (ORYSA); settings: crop plant compatibility
# Summary of the method: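 Visual rating (% effect vs. untreated plants; 100% = plant death) made about 3 weeks after treatment. Plants had been sprayed at one-leaf stage, 2–3 weeks post-sowing, with aqueous WP/EC preparations containing 0.5% additive, 600 l/ha water volume; a, b, c mark dose levels.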
# [24] = tested on: Amaranthus retroflexus (AMARE); experiment: Post-emergence herbicidal action against AMARE; settings: 80 g/ha, visual rating about 3 weeks after treatment vs untreated controls (100% = plants have died, 0% = like control plants)
# Summary of the method: as §2
# [25] = tested on: Polygonum convolvulus (POLCO); experiment: Post-emergence herbicidal action against POLCO; settings: dosage 80 g/ha
# Summary of the method: as §2
# [26] = tested on: Viola tricolor (VIOTR); experiment: Post-emergence herbicidal action against VIOTR; settings: 80 g/ha
# Summary of the method: as §2
# [27] = 80 g/ha, visual scoring after about 3 weeks vs untreated controls
# [28] = 80 g/ha, effect in comparison to untreated controls
# [29] = 20 g/ha, effect vs untreated controls
Pre-emergence action against ORYSA in % ([13]; 80 g/ha),"Post-emergence action against ORYSA in % [23, 28]",SMILES,Pre-emergence action against ALOMY ([1]; 320 g/ha),Pre-emergence action against AMARE in % ([2]; 80 g/ha),Pre-emergence action against AMARE in % ([2]; 320 g/ha),Pre-emergence action against AVEFA in % [3],"Pre-emergence action against DIGSA in % [4, 27]",Pre-emergence action against DIGSA in % ([4]; dosage 320 g/ha),Pre-emergence action against ECHCG in % [5],Pre-emergence action against LOLRI in % [6],Pre-emergence action against MATIN in % [7],Pre-emergence action against POLCO in % [9],Pre-emergence action against SETVI in % ([10]; dosage 320 g/ha),Pre-emergence action against VERPE in % [11],Pre-emergence action against VIOTR in % [12],Post-emergence action against ALOMY in % ([15]; 80 g/ha),Post-emergence action against DIGSA in % ([17]; 80 g/ha),Post-emergence action against ECHCG in % ([18]; dosage 80 g/ha),Post-emergence action against PHBPU in % ([20]; dosage 80 g/ha),Post-emergence action against VERPE in % ([22]; dosage 80 g/ha),further results
10%,20%,C#CCOC(=O)COc1nn(-c2ccccn2)c(-c2ccc(F)nc2)c1Br [Example I-360],100%,90%,100%,90%,90%,100%,100%,100%,90%,100%,100%,90%,100%,90%,80%,80%,80%,80%,"Pre-emergence action against ALOMY ([1]; 80 g/ha): 100%; Pre-emergence action against PHBPU in % ([8]; dosage 80 g/ha): 80%; Pre-emergence action against PHBPU in % ([8]; dosage 320 g/ha): 90%; Pre-emergence action against SETVI in % ([10]; dosage 80 g/ha): 90%; Post-emergence action against ABUTH in % ([14]; 320 g/ha): 80%; Post-emergence action against ALOMY in % ([15]; 320 g/ha): 90%; Post-emergence action against AVEFA in % [16]: 80%; Post-emergence action against DIGSA in % ([17]; 320 g/ha): 80%; Post-emergence action against ECHCG in % ([18]; dosage 320 g/ha): 80%; Post-emergence action against LOLRI in % [19]: 90%; Post-emergence action against PHBPU in % ([20]; dosage 320 g/ha): 80%; Post-emergence action against SETVI in % ([21]; dosage 80 g/ha): 80%; Post-emergence action against SETVI in % ([21]; dosage 320 g/ha): 80%; Post-emergence action against VERPE in % ([22]; 320 g/ha, VERPE): 80%"
0%,20%,CCOC(=O)CN(C)S(=O)(=O)NC(=O)COc1nn(-c2ccccn2)c(-c2ccc(F)nc2)c1Br [Example I-120],80%,,90%,,100%,100%,,80%,,,100%,90%,80%,100%,,,80%,90%,"Pre-emergence action against ORYSA in % ([13]; 320 g/ha): 10%; Post-emergence action against ABUTH in % ([14]; 80 g/ha): 80%; Post-emergence action against AMARE in % [24]: 80%; Post-emergence action against ORYSA in % [23, 29]: 10%"
0%,0%,CCOC(=O)COc1nn(-c2ccccn2)c(-c2ccc(F)nc2)c1I [Example I-121],100%,100%,100%,90%,100%,100%,100%,100%,80%,100%,100%,100%,100%,80%,80%,80%,,80%,"Post-emergence action against POLCO in % [25]: 80%; Post-emergence action against VIOTR in % [26]: 80%; Post-emergence action against ORYSA in % [23, 29]: 0%"
